From PMC3483245, “Optimization of a direct spectrophotometric method to investigate the kinetics and inhibition of sialidases” (BMC Biochemistry, 2012)
Entries after “also recorded” stand apart in the source; their conditions may differ.

What was measured:
NanA [1] = target: T1, NanA (Streptococcus pneumoniae, UniProt P62576); experiment: biochemical; type: biochemical; settings: for inhibition of NanA (in words): modified direct method
NanC [2] = target: T2, NanC (Streptococcus pneumoniae, UniProt A0A0H2UQE4); experiment: biochemical
NanB [3] = target: T3, NanB (Streptococcus pneumoniae serotype 4, UniProt Q54727); experiment: biochemical
pneumococcal sialidases = tested on: pneumococcal sialidases; parameters: method as in PMID 18835278; settings: buffer substance; cited from earlier work
NanA [4] = target: T1, NanA; experiment: Hydrolysis of p-NP-Neu5Ac by NanA, conventional indirect spectrophotometric method; type: biochemical; settings: 37°C, stopped with 0.5 M Na2CO3 pH 9.0, 405 nm
Method: (§1) The activity of the sialidases was assayed colorimetrically and fluorometrically using the substrates p-NP-Neu5Ac (Sigma, St. Louis, Miss) and 4MU-Neu5Ac (Sigma, St- Louis, Miss), respectively. Conventional indirect assays were performed as previously described. Briefly, the reaction mixtures containing the substrates and up to 100 nM sialidase were incubated at 37°C and stopped by the addition of 0.5 M Na2CO3 pH 9.0 for the colorimetric assay or 0.25 M glycine pH 10.0 for the fluorimetric assay. Released p-NP was detected spectrophometrically at 405 nm. The fluorescence associated with the release of 4-MU was measured at the excitation wavelength of 365 nm and an emission wavelength of 445 nm. These measurements were performed using an EnVision microplate reader (Perkin Elmer, Waltham, Mass.).

NanA [5] = target: T1, NanA; experiment: Hydrolysis of p-NP-Neu5Ac by NanA, direct spectrophotometric method; type: biochemical; settings: 30°C, 20 mM MES pH 6.0, 400 nm
NanC [6] = target: T2, NanC; experiment: Hydrolysis of p-NP-Neu5Ac by NanC, conventional indirect spectrophotometric method; type: biochemical; settings: 37°C, stopped with 0.5 M Na2CO3 pH 9.0, 405 nm
Method: as §1

NanB [7] = target: T3, NanB; experiment: Hydrolysis of p-NP-Neu5Ac by NanB, conventional indirect spectrophotometric method; type: biochemical; settings: 37°C, stopped with 0.5 M Na2CO3 pH 9.0, 405 nm
Method: as §1

NanB [8] = settings: direct method, 30°C, 20 mM MES pH 6.0, 400 nm
NanC [9] = target: T2, NanC; experiment: Hydrolysis of p-NP-Neu5Ac by NanC, direct spectrophotometric method; type: biochemical; settings: 30°C, 20 mM MES pH 6.0, 400 nm
[10] = first order kinetics up to 1,200 μM substrate
[11] = first order kinetics up to 500 μM substrate

T3 sequence (Q54727 30-697): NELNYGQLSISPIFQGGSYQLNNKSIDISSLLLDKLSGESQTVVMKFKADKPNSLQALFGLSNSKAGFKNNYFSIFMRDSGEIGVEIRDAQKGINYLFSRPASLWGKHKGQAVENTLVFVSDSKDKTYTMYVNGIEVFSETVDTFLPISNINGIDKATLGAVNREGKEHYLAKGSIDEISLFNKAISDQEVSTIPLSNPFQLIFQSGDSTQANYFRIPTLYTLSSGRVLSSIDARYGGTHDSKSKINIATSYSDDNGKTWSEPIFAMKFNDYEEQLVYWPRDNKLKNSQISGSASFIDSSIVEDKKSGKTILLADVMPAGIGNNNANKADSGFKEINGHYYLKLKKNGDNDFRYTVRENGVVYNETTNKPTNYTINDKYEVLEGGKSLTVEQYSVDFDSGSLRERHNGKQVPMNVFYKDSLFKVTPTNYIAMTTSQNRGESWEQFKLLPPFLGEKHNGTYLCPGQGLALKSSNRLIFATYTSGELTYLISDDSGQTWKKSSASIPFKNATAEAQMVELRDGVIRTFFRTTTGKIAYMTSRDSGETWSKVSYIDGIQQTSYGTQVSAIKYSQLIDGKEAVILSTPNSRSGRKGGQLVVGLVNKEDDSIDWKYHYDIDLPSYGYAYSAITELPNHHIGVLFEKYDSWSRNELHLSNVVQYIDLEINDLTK
T2 sequence (A0A0H2UQE4 entry or part of it): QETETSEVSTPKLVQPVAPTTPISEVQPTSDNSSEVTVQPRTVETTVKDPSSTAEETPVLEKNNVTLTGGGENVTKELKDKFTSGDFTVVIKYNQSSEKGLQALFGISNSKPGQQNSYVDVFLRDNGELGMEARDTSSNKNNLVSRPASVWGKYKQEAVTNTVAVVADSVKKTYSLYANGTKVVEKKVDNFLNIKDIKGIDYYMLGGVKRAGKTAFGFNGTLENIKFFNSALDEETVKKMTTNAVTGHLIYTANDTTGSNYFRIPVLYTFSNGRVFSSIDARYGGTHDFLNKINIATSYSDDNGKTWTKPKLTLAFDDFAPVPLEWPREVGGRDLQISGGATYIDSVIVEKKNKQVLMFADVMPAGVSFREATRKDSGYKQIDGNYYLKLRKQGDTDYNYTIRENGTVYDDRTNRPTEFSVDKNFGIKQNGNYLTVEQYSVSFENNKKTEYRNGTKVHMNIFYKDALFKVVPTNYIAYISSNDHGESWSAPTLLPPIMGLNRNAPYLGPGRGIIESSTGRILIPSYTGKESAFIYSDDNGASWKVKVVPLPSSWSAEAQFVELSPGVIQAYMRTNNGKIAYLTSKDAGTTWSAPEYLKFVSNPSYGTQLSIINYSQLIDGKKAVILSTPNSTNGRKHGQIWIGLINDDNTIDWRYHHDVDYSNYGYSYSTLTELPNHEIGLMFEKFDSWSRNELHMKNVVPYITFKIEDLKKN
T1 sequence (P62576 54-1035): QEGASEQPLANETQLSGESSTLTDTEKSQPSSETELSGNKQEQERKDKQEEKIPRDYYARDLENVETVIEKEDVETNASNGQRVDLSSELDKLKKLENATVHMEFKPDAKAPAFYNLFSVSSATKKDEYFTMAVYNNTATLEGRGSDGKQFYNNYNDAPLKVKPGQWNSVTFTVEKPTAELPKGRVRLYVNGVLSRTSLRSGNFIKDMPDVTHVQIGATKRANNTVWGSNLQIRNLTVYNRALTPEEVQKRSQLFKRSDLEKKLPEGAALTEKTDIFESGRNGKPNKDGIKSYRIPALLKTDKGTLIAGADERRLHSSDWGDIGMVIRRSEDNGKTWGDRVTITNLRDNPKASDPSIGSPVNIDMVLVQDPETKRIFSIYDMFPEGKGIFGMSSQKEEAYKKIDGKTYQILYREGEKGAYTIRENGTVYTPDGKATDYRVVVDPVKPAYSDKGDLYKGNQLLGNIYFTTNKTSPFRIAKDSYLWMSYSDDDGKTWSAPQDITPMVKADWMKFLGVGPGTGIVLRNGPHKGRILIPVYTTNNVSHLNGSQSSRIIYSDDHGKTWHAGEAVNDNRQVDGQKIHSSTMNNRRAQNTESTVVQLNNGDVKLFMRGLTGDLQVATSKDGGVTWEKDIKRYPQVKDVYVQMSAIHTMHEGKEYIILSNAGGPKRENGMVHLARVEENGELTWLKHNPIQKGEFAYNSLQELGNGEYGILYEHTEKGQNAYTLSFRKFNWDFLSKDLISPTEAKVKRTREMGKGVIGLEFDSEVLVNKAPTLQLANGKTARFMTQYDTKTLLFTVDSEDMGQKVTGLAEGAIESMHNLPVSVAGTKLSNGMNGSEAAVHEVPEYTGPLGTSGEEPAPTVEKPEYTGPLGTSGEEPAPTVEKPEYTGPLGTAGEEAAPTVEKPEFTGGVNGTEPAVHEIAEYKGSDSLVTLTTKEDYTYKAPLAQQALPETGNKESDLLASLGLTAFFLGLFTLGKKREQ

**Q.** Which results are given for CCC(CC)O[C@@H]1C=C(C(=O)O)C[C@H](N)[C@H]1NC(C)=O [Oseltamivir carboxylate]?
**A.** Ki (NanA [1]): 1.77 µM; inhibition of NanA (in words) (NanA [1]): significant inhibition; also recorded: inhibition constants in the micromolar range; Ki (NanC [2]): > 7500 µM; Ki (NanB [3]): > 7500 µM

**Q.** Which Ki (NanA [1]) does the source give for CC(=O)N[C@H]1[C@H]([C@H](O)[C@H](O)CO)OC(C(=O)O)=C[C@@H]1N=C(N)N [Zanamivir] here?
**A.** Its Ki is 720 µM.

**Q.** What about the “inhibition of NanA (in words)” value (NanA [1]) of the same compound?
**A.** The value was “Very limited inhibitory effects”.

**Q.** What about the Ki (NanC [2]) of the same compound?
**A.** The Ki was over 7500 µM.

**Q.** What about the Ki (NanB [3]) of the same compound?
**A.** Its Ki is over 7500 µM.

**Q.** With O=S(=O)(O)CCNC1CCCCC1 [CHES, 2-n-cyclohexylamino ethane sulfonic acid] as the compound, how does the “inhibition of pneumococcal sialidases (in words)” value (pneumococcal sialidases) read?
**A.** The value was “weak inhibitor”.

**Q.** For CC(=O)N[C@H]1[C@H]([C@H](O)[C@H](O)CO)OC(Oc2ccc([N+](=O)[O-])cc2)(C(=O)O)C[C@@H]1O (some centres unmarked) [p-NP-Neu5Ac, 2-O-(p-nitrophenyl)-N-acetylneuraminic acid], which “k cat / K m” value (NanA [4]) is on record?
**A.** The value was “(8.4 ± 0.9) × 10^4 M^-1·s^-1”.

**Q.** And the K m (NanA [4]; [10])?
**A.** The K m was >1,100 μM.

**Q.** And the k cat (NanA [4]; [10])?
**A.** Its k cat is over 490 s⁻¹.

**Q.** And the “k cat / K m” value (NanA [5])?
**A.** The value was “(3.5 ± 0.3) × 10^5 M^-1·s^-1”.

**Q.** What about the K m (NanA [5]; [11]) of the same compound?
**A.** Its K m is over 500 µM.

**Q.** What about the k cat (NanA [5]; [11]) of the same compound?
**A.** The k cat was over 175 s⁻¹.

**Q.** And the “k cat / K m” value (NanC [6])?
**A.** The value was “(1.2 ± 0.1) × 10^4 M^-1·s^-1”.

**Q.** What about the K m (NanC [6]; [10]) of the same compound?
**A.** Its K m is over 700 µM.

**Q.** What about the k cat (NanC [6]; [10]) of the same compound?
**A.** Its k cat is over 11 s⁻¹.

**Q.** And the “k cat / K m” value (NanB [7])?
**A.** Its value is “(1.1 ± 0.1) × 10^2 M^-1·s^-1”.

**Q.** And the K m (NanB [7]; [10])?
**A.** The K m was >1,200 μM.

**Q.** What about the k cat (NanB [7]; [10]) of the same compound?
**A.** Its k cat is over 11 s⁻¹.

**Q.** What about the “k cat / K m” value (NanB [8]) of the same compound?
**A.** The value was “(2.7 ± 0.3) × 10^2 M^-1·s^-1”.

**Q.** And the K m (NanB [8]; [11])?
**A.** The K m was over 500 µM.

**Q.** And the k cat (NanB [8]; [11])?
**A.** Its k cat is over 0.14 s⁻¹.

**Q.** And the “k cat / K m” value (NanC [9])?
**A.** Its value is “(3.4 ± 0.3) × 10^4 M^-1·s^-1”.

**Q.** And the K m (NanC [9]; [11])?
**A.** Its K m is over 500 µM.

**Q.** And the k cat (NanC [9]; [11])?
**A.** The k cat was over 17 s⁻¹.

**Q.** Which “inhibition of NanA (in words)” value (NanA [1]) does the source give for CC(=O)N[C@H]1[C@H]([C@H](O)[C@H](O)CO)OC(C(=O)O)=C[C@@H]1O [Neu5Ac2en, 2-deoxy-2,3-didehydro-N-acetylneuraminic acid] here?
**A.** The value was “significant inhibition; also recorded: inhibition constants in the micromolar range”.

**Q.** And the Ki (NanC [2])?
**A.** Its Ki is 2010 µM.
